What was measured:
Conditions in all cases: 72 h
HepG2 [1] = assay: drug sensitivity score (DSS) for viability; higher = more toxic; extreme values may be limits of the assay
U2OS [2] = assay: as above
Vero E6 [3] = assay: as above
Caco-2 [4] = assay: as above
Calu-3 [5] = assay: as above
HepG2 [6] = assay: relative viability EC50 (midpoint between 100% and the lowest measured viability); higher = less toxic
U2OS [7] = assay: as above
Vero E6 [8] = assay: as above
Caco-2 [9] = assay: as above
Calu-3 [10] = assay: as above
HepG2 [11] = assay: cell viability relative to DMSO; higher = less toxic
U2OS [12] = assay: as above
Vero E6 [13] = assay: as above
Caco-2 [14] = assay: as above
Calu-3 [15] = assay: as above

Compound: C=CCN1CC[C@]2(C)c3cc(O)ccc3C[C@H]1[C@H]2C
- drug sensitivity score (HepG2 [1]): 0
- drug sensitivity score (U2OS [2]): 0
- drug sensitivity score (Vero E6 [3]): 0
- drug sensitivity score (Caco-2 [4]): 0
- drug sensitivity score (Calu-3 [5]): 0
- relative viability EC50 (HepG2 [6]): > 10 µM
- relative viability EC50 (U2OS [7]): > 10 µM
- relative viability EC50 (Vero E6 [8]): > 10 µM
- relative viability EC50 (Caco-2 [9]): > 10 µM
- relative viability EC50 (Calu-3 [10]): > 10 µM
- cell viability (HepG2 [11]; 1 nM): 98%
- cell viability (HepG2 [11]; 10 nM): 95.4%
- cell viability (HepG2 [11]; 100 nM): 108%
- cell viability (HepG2 [11]; 1000 nM): 104%
- cell viability (HepG2 [11]; 10000 nM): 117%
- cell viability (U2OS [12]; 1 nM): 98.6%
- cell viability (U2OS [12]; 10 nM): 98.2%
- cell viability (U2OS [12]; 100 nM): 103%
- cell viability (U2OS [12]; 1000 nM): 99.2%
- cell viability (U2OS [12]; 10000 nM): 101%
- cell viability (Vero E6 [13]; 1 nM): 96.9%
- cell viability (Vero E6 [13]; 10 nM): 102%
- cell viability (Vero E6 [13]; 100 nM): 93.4%
- cell viability (Vero E6 [13]; 1000 nM): 100%
- cell viability (Vero E6 [13]; 10000 nM): 107%
- cell viability (Caco-2 [14]; 1 nM): 97.3%
- cell viability (Caco-2 [14]; 10 nM): 99%
- cell viability (Caco-2 [14]; 100 nM): 102%
- cell viability (Caco-2 [14]; 1000 nM): 103%
- cell viability (Caco-2 [14]; 10000 nM): 96.3%
- cell viability (Calu-3 [15]; 1 nM): 102%
- cell viability (Calu-3 [15]; 10 nM): 90.2%
- cell viability (Calu-3 [15]; 100 nM): 94.7%
- cell viability (Calu-3 [15]; 1000 nM): 90.3%
- cell viability (Calu-3 [15]; 10000 nM): 93.8%

Compound: CC(C)N(CCCNC(=O)Nc1ccc(C(C)(C)C)cc1)C[C@H]1O[C@@H](n2ccc3c(N)ncnc32)[C@H](O)[C@@H]1O
- drug sensitivity score (HepG2 [1]): 0
- drug sensitivity score (U2OS [2]): 0
- drug sensitivity score (Vero E6 [3]): 0
- drug sensitivity score (Caco-2 [4]): 0
- drug sensitivity score (Calu-3 [5]): 0
- relative viability EC50 (HepG2 [6]): > 10 µM
- relative viability EC50 (U2OS [7]): > 10 µM
- relative viability EC50 (Vero E6 [8]): > 10 µM
- relative viability EC50 (Caco-2 [9]): > 10 µM
- relative viability EC50 (Calu-3 [10]): > 10 µM
- cell viability (HepG2 [11]; 1 nM): 104%
- cell viability (HepG2 [11]; 10 nM): 105%
- cell viability (HepG2 [11]; 100 nM): 107%
- cell viability (HepG2 [11]; 1000 nM): 91.5%
- cell viability (HepG2 [11]; 10000 nM): 111%
- cell viability (U2OS [12]; 1 nM): 94.1%
- cell viability (U2OS [12]; 10 nM): 100%
- cell viability (U2OS [12]; 100 nM): 92.9%
- cell viability (U2OS [12]; 1000 nM): 102%
- cell viability (U2OS [12]; 10000 nM): 101%
- cell viability (Vero E6 [13]; 1 nM): 94.3%
- cell viability (Vero E6 [13]; 10 nM): 97%
- cell viability (Vero E6 [13]; 100 nM): 97.4%
- cell viability (Vero E6 [13]; 1000 nM): 99.9%
- cell viability (Vero E6 [13]; 10000 nM): 99.5%
- cell viability (Caco-2 [14]; 1 nM): 99.7%
- cell viability (Caco-2 [14]; 10 nM): 97.2%
- cell viability (Caco-2 [14]; 100 nM): 95.2%
- cell viability (Caco-2 [14]; 1000 nM): 86.5%
- cell viability (Caco-2 [14]; 10000 nM): 103%
- cell viability (Calu-3 [15]; 1 nM): 96.3%
- cell viability (Calu-3 [15]; 10 nM): 106%
- cell viability (Calu-3 [15]; 100 nM): 92.4%
- cell viability (Calu-3 [15]; 1000 nM): 102%
- cell viability (Calu-3 [15]; 10000 nM): 108%

Compound: CN[C@H](CNC(=O)N1CCC[C@@H]([C@@H](OCCNC(=O)OC)c2cccc(Cl)c2)C1)C[C@H]1CCCOC1
- drug sensitivity score (HepG2 [1]): 0
- drug sensitivity score (U2OS [2]): 0
- drug sensitivity score (Vero E6 [3]): 0
- drug sensitivity score (Caco-2 [4]): 0
- drug sensitivity score (Calu-3 [5]): 0
- relative viability EC50 (HepG2 [6]): > 10 µM
- relative viability EC50 (U2OS [7]): > 10 µM
- relative viability EC50 (Vero E6 [8]): > 10 µM
- relative viability EC50 (Caco-2 [9]): > 10 µM
- relative viability EC50 (Calu-3 [10]): > 10 µM
- cell viability (HepG2 [11]; 1 nM): 101%
- cell viability (HepG2 [11]; 10 nM): 108%
- cell viability (HepG2 [11]; 100 nM): 92.5%
- cell viability (HepG2 [11]; 1000 nM): 98.6%
- cell viability (HepG2 [11]; 10000 nM): 95%
- cell viability (U2OS [12]; 1 nM): 97.3%
- cell viability (U2OS [12]; 10 nM): 98.1%
- cell viability (U2OS [12]; 100 nM): 106%
- cell viability (U2OS [12]; 1000 nM): 97.7%
- cell viability (U2OS [12]; 10000 nM): 99.1%
- cell viability (Vero E6 [13]; 1 nM): 101%
- cell viability (Vero E6 [13]; 10 nM): 101%
- cell viability (Vero E6 [13]; 100 nM): 98.4%
- cell viability (Vero E6 [13]; 1000 nM): 107%
- cell viability (Vero E6 [13]; 10000 nM): 98.5%
- cell viability (Caco-2 [14]; 1 nM): 98.2%
- cell viability (Caco-2 [14]; 10 nM): 96.1%
- cell viability (Caco-2 [14]; 100 nM): 97.1%
- cell viability (Caco-2 [14]; 1000 nM): 90.1%
- cell viability (Caco-2 [14]; 10000 nM): 94.5%
- cell viability (Calu-3 [15]; 1 nM): 103%
- cell viability (Calu-3 [15]; 10 nM): 96.2%
- cell viability (Calu-3 [15]; 100 nM): 102%
- cell viability (Calu-3 [15]; 1000 nM): 102%
- cell viability (Calu-3 [15]; 10000 nM): 98.1%

Compound: COC(=O)c1c(C)[nH]c(C)c1C(=O)c1ccccc1Cc1ccccc1
- drug sensitivity score (HepG2 [1]): 0
- drug sensitivity score (U2OS [2]): 0
- drug sensitivity score (Vero E6 [3]): 0
- drug sensitivity score (Caco-2 [4]): 0.3
- drug sensitivity score (Calu-3 [5]): 0
- relative viability EC50 (HepG2 [6]): > 10 µM
- relative viability EC50 (U2OS [7]): > 10 µM
- relative viability EC50 (Vero E6 [8]): > 10 µM
- relative viability EC50 (Caco-2 [9]): > 10 µM
- relative viability EC50 (Calu-3 [10]): > 10 µM
- cell viability (HepG2 [11]; 1 nM): 99.2%
- cell viability (HepG2 [11]; 10 nM): 94.8%
- cell viability (HepG2 [11]; 100 nM): 109%
- cell viability (HepG2 [11]; 1000 nM): 95.8%
- cell viability (HepG2 [11]; 10000 nM): 104%
- cell viability (U2OS [12]; 1 nM): 99.5%
- cell viability (U2OS [12]; 10 nM): 103%
- cell viability (U2OS [12]; 100 nM): 87.8%
- cell viability (U2OS [12]; 1000 nM): 102%
- cell viability (U2OS [12]; 10000 nM): 92.1%
- cell viability (Vero E6 [13]; 1 nM): 100%
- cell viability (Vero E6 [13]; 10 nM): 101%
- cell viability (Vero E6 [13]; 100 nM): 98%
- cell viability (Vero E6 [13]; 1000 nM): 94.1%
- cell viability (Vero E6 [13]; 10000 nM): 99.8%
- cell viability (Caco-2 [14]; 1 nM): 98.6%
- cell viability (Caco-2 [14]; 10 nM): 97.1%
- cell viability (Caco-2 [14]; 100 nM): 98.1%
- cell viability (Caco-2 [14]; 1000 nM): 99.9%
- cell viability (Caco-2 [14]; 10000 nM): 84.8%
- cell viability (Calu-3 [15]; 1 nM): 90.1%
- cell viability (Calu-3 [15]; 10 nM): 106%
- cell viability (Calu-3 [15]; 100 nM): 89.8%
- cell viability (Calu-3 [15]; 1000 nM): 108%
- cell viability (Calu-3 [15]; 10000 nM): 90.1%

Compound: CC1CNc2c(cccc2S(=O)(=O)N[C@@H](CCCNC(=N)N)C(=O)N2CC[C@@H](C)C[C@@H]2C(=O)O)C1 (mixture of isomers) [argatroban]
- drug sensitivity score (HepG2 [1]): 0
- drug sensitivity score (U2OS [2]): 0
- drug sensitivity score (Vero E6 [3]): 0
- drug sensitivity score (Caco-2 [4]): 0
- drug sensitivity score (Calu-3 [5]): 0
- relative viability EC50 (HepG2 [6]): > 10 µM
- relative viability EC50 (U2OS [7]): > 10 µM
- relative viability EC50 (Vero E6 [8]): > 10 µM
- relative viability EC50 (Caco-2 [9]): > 10 µM
- relative viability EC50 (Calu-3 [10]): > 10 µM
- cell viability (HepG2 [11]; 1 nM): 113%
- cell viability (HepG2 [11]; 10 nM): 93.7%
- cell viability (HepG2 [11]; 100 nM): 96.1%
- cell viability (HepG2 [11]; 1000 nM): 87.4%
- cell viability (HepG2 [11]; 10000 nM): 97.8%
- cell viability (U2OS [12]; 1 nM): 98.2%
- cell viability (U2OS [12]; 10 nM): 104%
- cell viability (U2OS [12]; 100 nM): 98.9%
- cell viability (U2OS [12]; 1000 nM): 102%
- cell viability (U2OS [12]; 10000 nM): 96.2%
- cell viability (Vero E6 [13]; 1 nM): 97.7%
- cell viability (Vero E6 [13]; 10 nM): 99.1%
- cell viability (Vero E6 [13]; 100 nM): 99.2%
- cell viability (Vero E6 [13]; 1000 nM): 93.4%
- cell viability (Vero E6 [13]; 10000 nM): 102%
- cell viability (Caco-2 [14]; 1 nM): 96.5%
- cell viability (Caco-2 [14]; 10 nM): 97.1%
- cell viability (Caco-2 [14]; 100 nM): 86.3%
- cell viability (Caco-2 [14]; 1000 nM): 105%
- cell viability (Caco-2 [14]; 10000 nM): 94.3%
- cell viability (Calu-3 [15]; 1 nM): 91.3%
- cell viability (Calu-3 [15]; 10 nM): 97.4%
- cell viability (Calu-3 [15]; 100 nM): 98.7%
- cell viability (Calu-3 [15]; 1000 nM): 93.8%
- cell viability (Calu-3 [15]; 10000 nM): 94.6%

From the supplement of paper PMC13380429
